Assay results: patent publication US10626113B2, “Phosphodiesterase inhibitors and uses thereof” (THE TRUSTEES OF COLUMBIA UNIVERSITY IN THE CITY OF NEW YORK, priority 2012, dated 2020)
pIC50: −log10 of the molar value.

Columns and labels:
APP/PS1 mice = assay: Preliminary studies with sildenafil in APP/PS1 mice; format: in vivo; details: persist beyond the administration of the inhibitor
Method: Slices from transgenic mice treated with the compound had 226.23%±6.72 potentiation compared to 164.12%±10.37 in slices from vehicle-treated transgenic mice (FIG. 3). Residual potentiation recorded during the last 5 minutes of a 2 hr recording following tetanic stimulation of the Schaffer collateral fibers at the CA3-CA1 connection.

PDE5 = PDE5 (Homo sapiens (Human), UniProt O76074); assay: PDE5 inhibition assay (BPS PDE assay kit, fluorescence polarization); format: biochemical
Method: Materials and Methods: PDE5 inhibition was assayed at BPS Bioscience (San Diego, Calif.) using BPS PDE assay kits (BPS Catalog number 60300, enzyme lot 090810). Test compounds were supplied as liquid solutions of 10 mM concentration in DMSO. Sildenafil, used as a standard was dissolved in DMSO. Intermediate dilutions were 10% DMSO in PDE assay buffer and tests at ranges from 0.1 to 100 nM. 0.1 ng of enzyme was used per reaction, and the substrate was 100 nM FAM-cGMP.
(§1) Assay conditions: A series of dilutions of the test compounds were prepared with 10% DMSO in assay buffer and 5 μl of the dilution was added to a 50 μl reaction so that the final concentration of DMSO is 1% in all of reactions. The enzymatic reactions were conducted at room temperature for 60 minutes in a 50 μl mixture containing PDE assay buffer, 100 nM FAM-cAMP or 100 nM FAM-cGMP, a PDE enzyme, and the test compound. After the enzymatic reaction, 100 μl of a binding solution (1:100 dilution of the binding agent with the binding agent diluent) was added to each reaction and the reaction was performed at room temperature for 60 minutes. Fluorescence intensity was measured at an excitation of 485 nm and an emission of 528 nm using a Tecan Infinite M1000 microplate reader.
(§2) Data analysis: PDE activity assays were performed in duplicate at each concentration. Fluorescence intensity is converted to fluorescence polarization using the Tecan Magellan6 software. The fluorescence polarization data were analyzed using the computer software, Graphpad Prism. The fluorescence polarization (FPt) in absence of the compound in each data set was defined as 100% activity. In the absence of PDE and the compound, the value of fluorescent polarization (FPb) in each data set was defined as 0% activity. The percent activity in the presence of the compound was calculated according to the following equation: % activity=(FP−FPb)/(FPt−FPb)×100%, where FP=the fluorescence polarization in the presence of the compound.
The values of % activity versus a series of compound concentrations were then plotted using non-linear regression analysis of Sigmoidal dose-response curve generated with the equation Y=B+(T−B)/1+10^((LogEC50-X)×Hill Slope), where Y=percent activity, B=minimum percent activity, T=maximum percent activity, X=logarithm of compound and Hill Slope=slope factor or Hill coefficient. The IC50 value was determined by the concentration causing a half-maximal percent activity.

PDE6 = PDE6 inhibition assay (fluorescence polarization); format: biochemical; details: Table 1
Method: as §1, with “The” for “Assay conditions: A series of dilutions of the test compounds were prepared with 10% DMSO in assay buffer and 5 μl of the dilution was added to a 50 μl reaction so that the final concentration of DMSO is 1% in all of reactions. The”
as §2, with “Fluorescence” for “Data analysis: PDE activity assays were performed in duplicate at each concentration. Fluorescence”
The IC50 value was determined by the concentration causing a half-maximal percent activity.

SMILES | pIC50 (PDE5; Table 1, 100 nM FAM-cGMP) | pIC50 (PDE6) | effects on synaptic and cognitive abnormalities in APP/PS1 mice (APP/PS1 mice) | pIC50 (PDE5; Table 3)
CCCc1nn(C)c2c(=O)[nH]c(-c3cc(S(=O)(=O)N4CCN(C)CC4)ccc3OCC)nc12 [sildenafil] | – | – | prolonged beneficial effects | –
COc1ccc(CNc2c3c(nc4ccc(Br)cc24)CCN(C)C3)cc1Cl [A, 8-bromo-N-(3-chloro-4-methoxybenzyl)-2-methyl-1,2,3,4-tetrahydrobenzo[b][1,6]naphthyridin-10-amine] | 7.67 | – | – | –
[2H]C([2H])(Nc1c2c(nc3ccc(C#N)cc13)CCN(C(C)=O)C2)c1ccc(OC)c(Cl)c1 [M] | – | – | – | 10.36
COc1ccc(CNc2c3c(nc4ccc(Br)cc24)CCNC3)cc1Cl [F, 8-bromo-N-(3-chloro-4-methoxybenzyl)-1,2,3,4-tetrahydrobenzo[b][1,6]naphthyridin-10-amine] | 8.27 | – | – | –

Continued, in another order:

pIC50 (PDE5; Table 1, 100 nM FAM-cGMP) | pIC50 (PDE6) | SMILES | effects on synaptic and cognitive abnormalities in APP/PS1 mice (APP/PS1 mice) | pIC50 (PDE5; Table 3)
7.36 | 5.18 | COc1ccc(CNc2c3c(nc4ccc(C#N)cc24)NCCNC3=O)cc1Cl [E, 6-[(3-chloro-4-methoxybenzyl)amino]-5-oxo-2,3,4,5-tetrahydro-1H-[1,4]diazepino[5,6-b]quinoline-8-carbonitrile] | – | –
10.15 | 7.52 | CCc1cc(C#N)cc2c(NCc3ccc(OC)c(Cl)c3)c3c(nc12)CCN(C)C3 [D, 10-[(3-chloro-4-methoxybenzyl)amino]-6-ethyl-2-methyl-1,2,3,4-tetrahydrobenzo[b][1,6]naphthyridine-8-carbonitrile] | – | –
8.81 | < 7.00 | COc1ccc(CNc2c3c(nc4ccc(C#N)cc24)CCNC3)cc1Cl [G, 10-((3-chloro-4-methoxybenzyl)amino)-1,2,3,4-tetrahydrobenzo[b][1,6]naphthyridine-8-carbonitrile] | – | –
